Laboratory results published in publication doi:10.1101/2021.04.08.439011v1 (biorxiv, 2021).

Tests used:
Conditions in all cases: 0.1 µM; binder
PKAC-alpha = PKAC-alpha (Homo sapiens, UniProt P17612)
ERBB3 = ERBB3 (Homo sapiens, UniProt P21860)
ERK4 = ERK4 (Homo sapiens, UniProt P31152)
PHKG1 = PHKG1 (Homo sapiens, UniProt Q16816)
MTOR = MTOR (Homo sapiens, UniProt P42345)
KIT(A829P) = KIT(A829P) (Homo sapiens, UniProt P10721, A829P)
IRAK1 = IRAK1 (Homo sapiens, UniProt P51617)
FRK = FRK (Homo sapiens, UniProt P42685)
RET = RET (Homo sapiens, UniProt P07949)
PRKCD = PRKCD (Homo sapiens, UniProt Q05655)
ANKK1 = ANKK1 (Homo sapiens, UniProt Q8NFD2)
ABL2 = ABL2 (Homo sapiens, UniProt P42684)
ACVRL1 = ACVRL1 (Homo sapiens, UniProt P37023)
TSSK3 = TSSK3 (Homo sapiens, UniProt Q96PN8)
BRK = BRK (Homo sapiens, UniProt Q13882)
HIPK4 = HIPK4 (Homo sapiens, UniProt Q8NE63)
ULK3 = ULK3 (Homo sapiens, UniProt Q6PHR2)
BMPR1A = BMPR1A (Homo sapiens, UniProt P36894)
GRK3 = GRK3 (Homo sapiens, UniProt P35626)
DDR2 = DDR2 (Homo sapiens, UniProt Q16832)
RIPK2 = RIPK2 (Homo sapiens, UniProt O43353)
MEK4 = MEK4 (Homo sapiens, UniProt P45985)
EGFR(L858R,T790M) = EGFR(L858R,T790M) (Homo sapiens, UniProt P00533, L858R/T790M)
ROCK2 = ROCK2 (Homo sapiens, UniProt O75116)
SRMS = SRMS (Homo sapiens, UniProt Q9H3Y6)
ERK3 = ERK3 (Homo sapiens, UniProt Q16659)
LRRK2(G2019S) = LRRK2(G2019S) (Homo sapiens, UniProt Q5S007, G2019S)
MAP4K5 = MAP4K5 (Homo sapiens, UniProt Q9Y4K4)
NIK = NIK (Homo sapiens, UniProt Q99558)
TLK2 = TLK2 (Homo sapiens, UniProt Q86UE8)
PKN1 = PKN1 (Homo sapiens, UniProt Q16512)

MEK4, sequence (P45985 whole entry): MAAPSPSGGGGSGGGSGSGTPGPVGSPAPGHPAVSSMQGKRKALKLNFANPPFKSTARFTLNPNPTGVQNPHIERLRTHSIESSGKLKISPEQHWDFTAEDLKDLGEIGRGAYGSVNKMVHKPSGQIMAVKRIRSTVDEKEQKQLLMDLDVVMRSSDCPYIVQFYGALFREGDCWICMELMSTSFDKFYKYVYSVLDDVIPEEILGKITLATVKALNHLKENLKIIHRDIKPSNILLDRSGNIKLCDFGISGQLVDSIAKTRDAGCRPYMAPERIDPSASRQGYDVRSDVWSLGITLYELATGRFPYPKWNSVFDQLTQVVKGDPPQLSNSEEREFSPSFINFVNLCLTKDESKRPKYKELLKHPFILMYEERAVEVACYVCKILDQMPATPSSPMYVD
TSSK3, sequence (Q96PN8 whole entry): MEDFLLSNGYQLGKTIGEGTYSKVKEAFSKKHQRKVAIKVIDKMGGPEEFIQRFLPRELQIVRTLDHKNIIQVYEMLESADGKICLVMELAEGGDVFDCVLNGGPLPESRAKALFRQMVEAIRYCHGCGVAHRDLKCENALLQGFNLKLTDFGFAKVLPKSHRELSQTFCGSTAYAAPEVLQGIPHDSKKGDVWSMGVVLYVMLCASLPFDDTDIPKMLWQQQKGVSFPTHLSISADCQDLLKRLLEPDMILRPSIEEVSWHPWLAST
DDR2, sequence (Q16832 whole entry): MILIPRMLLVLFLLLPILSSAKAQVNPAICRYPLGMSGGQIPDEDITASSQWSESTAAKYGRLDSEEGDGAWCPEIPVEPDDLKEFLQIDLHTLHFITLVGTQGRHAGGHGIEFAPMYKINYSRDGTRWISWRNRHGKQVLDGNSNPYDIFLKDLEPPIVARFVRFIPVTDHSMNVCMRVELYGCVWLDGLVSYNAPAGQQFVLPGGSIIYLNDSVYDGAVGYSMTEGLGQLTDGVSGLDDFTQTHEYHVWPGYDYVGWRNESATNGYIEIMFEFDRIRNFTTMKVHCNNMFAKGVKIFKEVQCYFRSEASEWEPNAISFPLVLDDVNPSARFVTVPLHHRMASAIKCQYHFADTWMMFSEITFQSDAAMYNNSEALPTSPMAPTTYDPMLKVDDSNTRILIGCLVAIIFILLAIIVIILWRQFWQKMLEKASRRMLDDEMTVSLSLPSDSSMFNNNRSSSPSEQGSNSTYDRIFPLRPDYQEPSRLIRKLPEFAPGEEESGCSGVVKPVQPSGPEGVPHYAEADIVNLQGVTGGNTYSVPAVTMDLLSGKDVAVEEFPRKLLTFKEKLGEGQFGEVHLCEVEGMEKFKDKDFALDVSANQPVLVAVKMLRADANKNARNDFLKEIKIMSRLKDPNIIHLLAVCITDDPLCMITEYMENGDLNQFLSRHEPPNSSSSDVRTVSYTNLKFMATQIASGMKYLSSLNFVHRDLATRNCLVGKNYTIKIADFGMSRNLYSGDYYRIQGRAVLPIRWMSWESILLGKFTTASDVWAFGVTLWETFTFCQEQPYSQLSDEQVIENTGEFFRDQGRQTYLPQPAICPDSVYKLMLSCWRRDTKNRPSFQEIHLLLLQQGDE
ERK4, sequence (P31152 whole entry): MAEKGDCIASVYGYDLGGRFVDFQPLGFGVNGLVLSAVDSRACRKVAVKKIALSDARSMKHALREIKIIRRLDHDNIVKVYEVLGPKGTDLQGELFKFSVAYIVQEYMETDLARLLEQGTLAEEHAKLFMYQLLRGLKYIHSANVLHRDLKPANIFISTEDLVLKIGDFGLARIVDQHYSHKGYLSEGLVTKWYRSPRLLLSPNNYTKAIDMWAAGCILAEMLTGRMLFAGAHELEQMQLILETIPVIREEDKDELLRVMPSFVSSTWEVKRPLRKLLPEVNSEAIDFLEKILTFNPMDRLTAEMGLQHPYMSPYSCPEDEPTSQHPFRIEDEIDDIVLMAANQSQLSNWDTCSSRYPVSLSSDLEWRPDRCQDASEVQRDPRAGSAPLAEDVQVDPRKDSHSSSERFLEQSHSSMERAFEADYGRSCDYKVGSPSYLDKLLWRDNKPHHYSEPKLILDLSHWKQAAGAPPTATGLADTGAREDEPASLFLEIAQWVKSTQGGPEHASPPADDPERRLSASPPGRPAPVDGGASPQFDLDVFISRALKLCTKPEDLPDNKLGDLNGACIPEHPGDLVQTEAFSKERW
MAP4K5, sequence (Q9Y4K4 whole entry): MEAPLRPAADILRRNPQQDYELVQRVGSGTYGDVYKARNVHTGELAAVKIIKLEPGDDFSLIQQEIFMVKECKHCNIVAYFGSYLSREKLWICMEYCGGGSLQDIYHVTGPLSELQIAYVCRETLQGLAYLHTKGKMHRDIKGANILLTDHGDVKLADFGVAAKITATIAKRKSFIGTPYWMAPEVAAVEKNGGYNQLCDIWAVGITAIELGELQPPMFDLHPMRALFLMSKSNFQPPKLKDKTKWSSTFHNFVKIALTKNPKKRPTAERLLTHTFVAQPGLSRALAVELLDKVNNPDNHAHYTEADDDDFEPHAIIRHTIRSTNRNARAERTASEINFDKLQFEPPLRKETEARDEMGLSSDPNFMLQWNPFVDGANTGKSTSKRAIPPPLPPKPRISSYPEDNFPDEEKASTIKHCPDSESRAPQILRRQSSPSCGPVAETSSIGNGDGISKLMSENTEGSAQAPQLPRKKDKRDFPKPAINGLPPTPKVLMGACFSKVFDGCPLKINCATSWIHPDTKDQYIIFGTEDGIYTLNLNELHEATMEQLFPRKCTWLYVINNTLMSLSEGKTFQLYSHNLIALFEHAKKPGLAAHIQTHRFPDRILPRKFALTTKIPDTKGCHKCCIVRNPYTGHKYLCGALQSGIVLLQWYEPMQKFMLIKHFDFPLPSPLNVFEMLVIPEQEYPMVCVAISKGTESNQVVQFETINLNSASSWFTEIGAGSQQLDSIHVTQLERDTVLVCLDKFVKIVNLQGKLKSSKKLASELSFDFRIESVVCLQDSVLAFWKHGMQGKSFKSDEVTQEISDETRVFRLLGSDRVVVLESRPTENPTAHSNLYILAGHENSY
NIK, sequence (Q99558 whole entry): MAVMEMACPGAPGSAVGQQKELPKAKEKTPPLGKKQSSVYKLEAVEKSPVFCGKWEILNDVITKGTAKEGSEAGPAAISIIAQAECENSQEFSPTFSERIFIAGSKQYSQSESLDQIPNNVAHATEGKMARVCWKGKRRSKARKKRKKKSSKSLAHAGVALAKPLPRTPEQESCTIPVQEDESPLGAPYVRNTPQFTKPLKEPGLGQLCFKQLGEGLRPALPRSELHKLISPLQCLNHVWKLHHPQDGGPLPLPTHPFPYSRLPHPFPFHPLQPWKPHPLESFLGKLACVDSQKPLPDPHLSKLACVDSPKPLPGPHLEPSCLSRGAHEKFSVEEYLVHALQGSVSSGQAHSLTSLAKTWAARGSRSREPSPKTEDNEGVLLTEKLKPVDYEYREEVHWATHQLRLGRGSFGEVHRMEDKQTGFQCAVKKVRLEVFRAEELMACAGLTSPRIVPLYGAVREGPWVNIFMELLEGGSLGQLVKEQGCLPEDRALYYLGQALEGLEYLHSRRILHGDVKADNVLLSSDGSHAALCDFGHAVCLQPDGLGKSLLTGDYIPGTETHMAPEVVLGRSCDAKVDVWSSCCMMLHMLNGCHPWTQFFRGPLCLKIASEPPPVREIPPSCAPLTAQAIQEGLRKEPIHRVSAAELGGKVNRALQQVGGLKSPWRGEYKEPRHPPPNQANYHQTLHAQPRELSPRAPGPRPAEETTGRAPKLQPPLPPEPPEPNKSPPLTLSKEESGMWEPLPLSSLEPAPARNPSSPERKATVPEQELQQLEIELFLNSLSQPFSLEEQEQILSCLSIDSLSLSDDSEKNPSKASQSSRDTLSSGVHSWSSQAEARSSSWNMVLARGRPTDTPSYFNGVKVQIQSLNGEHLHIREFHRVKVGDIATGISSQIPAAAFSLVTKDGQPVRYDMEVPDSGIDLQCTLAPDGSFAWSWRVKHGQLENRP
IRAK1, sequence (P51617 whole entry): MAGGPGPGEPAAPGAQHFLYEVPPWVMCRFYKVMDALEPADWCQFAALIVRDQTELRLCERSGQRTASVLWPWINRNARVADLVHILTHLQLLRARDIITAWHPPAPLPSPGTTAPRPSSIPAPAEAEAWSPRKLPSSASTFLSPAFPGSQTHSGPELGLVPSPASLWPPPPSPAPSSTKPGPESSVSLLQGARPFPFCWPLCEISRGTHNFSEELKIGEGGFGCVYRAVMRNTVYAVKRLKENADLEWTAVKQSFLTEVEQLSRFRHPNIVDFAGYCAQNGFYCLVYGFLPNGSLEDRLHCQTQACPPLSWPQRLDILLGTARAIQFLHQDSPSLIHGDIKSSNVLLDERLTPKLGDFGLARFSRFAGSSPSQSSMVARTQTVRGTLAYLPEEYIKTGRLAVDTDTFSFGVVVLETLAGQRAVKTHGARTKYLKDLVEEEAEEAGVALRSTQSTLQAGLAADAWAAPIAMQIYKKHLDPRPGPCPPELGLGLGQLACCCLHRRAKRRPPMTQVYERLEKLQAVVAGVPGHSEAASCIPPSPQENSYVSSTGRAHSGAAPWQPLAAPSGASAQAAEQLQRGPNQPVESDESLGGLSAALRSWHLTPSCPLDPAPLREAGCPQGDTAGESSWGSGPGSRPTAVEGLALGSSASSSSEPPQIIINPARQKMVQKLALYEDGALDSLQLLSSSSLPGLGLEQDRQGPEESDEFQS
PHKG1, sequence (Q16816 whole entry): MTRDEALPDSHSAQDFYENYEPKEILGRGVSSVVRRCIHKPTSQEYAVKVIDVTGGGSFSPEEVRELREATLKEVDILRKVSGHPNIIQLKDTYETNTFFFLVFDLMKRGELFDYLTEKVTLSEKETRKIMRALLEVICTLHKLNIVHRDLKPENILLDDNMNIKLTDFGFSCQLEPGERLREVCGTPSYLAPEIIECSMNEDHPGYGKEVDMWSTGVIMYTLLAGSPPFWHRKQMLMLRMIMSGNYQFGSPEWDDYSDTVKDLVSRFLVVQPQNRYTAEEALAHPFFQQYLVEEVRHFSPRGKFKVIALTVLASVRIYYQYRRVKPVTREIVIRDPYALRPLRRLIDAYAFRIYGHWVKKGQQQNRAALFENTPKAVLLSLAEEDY

**Q.** Which results are given for `CNc1ncc2cc(-c3ccc(-c4cccc(C)n4)cc3Cl)c(=O)n(C[C@H]3OC[C@H](N)CO3)c2n1` [compound 6, G-5555]?
**A.** Percent Control (PKAC-alpha): 100%; Percent Control (ERBB3): 77%; Percent Control (ERK4): 100%; Percent Control (PHKG1): 100%; Percent Control (MTOR): 83%; Percent Control (KIT(A829P)): 81%; Percent Control (IRAK1): 97%; Percent Control (FRK): 100%; Percent Control (RET): 96%; Percent Control (PRKCD): 100%; Percent Control (ANKK1): 91%; Percent Control (ABL2): 100%; Percent Control (ACVRL1): 100%; Percent Control (TSSK3): 100%; Percent Control (BRK): 100%; Percent Control (HIPK4): 95%; Percent Control (ULK3): 90%; Percent Control (BMPR1A): 90%; Percent Control (GRK3): 83%; Percent Control (DDR2): 88%; Percent Control (RIPK2): 100%; Percent Control (MEK4): 49%; Percent Control (EGFR(L858R,T790M)): 100%; Percent Control (ROCK2): 94%; Percent Control (SRMS): 99%; Percent Control (ERK3): 100%; Percent Control (LRRK2(G2019S)): 100%; Percent Control (MAP4K5): 18%; Percent Control (NIK): 100%; Percent Control (TLK2): 100%; Percent Control (PKN1): 100%
